Patent publication US20260262643A1, “HERBICIDAL BENZOXAZINES” (FMC CORPORATION, priority 2022, published 2026)

Legend:
oat, wild [1] = test: Test C postemergence; type: in vivo, Avena fatua; conditions: 10 days
Procedure, shortened: (§1)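 Soil-applied (pre) and foliar (post, 1–2 leaf, 2–10 cm) sprays; surfactant-containing non-phytotoxic solvent vehicle; loam/sand substrate. Readout: visual % control at 10 d, greenhouse, versus untreated.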

barnyardgrass [2] = test: Test C preemergence; type: in vivo, Echinochloa crusgalli; conditions: 0 to 100 scale (0 no effect, 100 complete control); for Plant response rating, Barnyardgrass: Preemergence, 500 g ai/ha, visual rating after 10 days; for Barnyardgrass plant response rating: Test C, preemergence, 125 g ai/ha
Procedure, shortened: as §1

corn [3] = test: Test C postemergence; type: in vivo, Zea mays; conditions: 10 days
Procedure, shortened: as §1

ragweed [4] = test: Test C postemergence; type: in vivo, Ambrosia artemisiifolia; conditions: 10 days
Procedure, shortened: as §1

corn [5] = test: Test C preemergence; type: in vivo, Zea mays; conditions: 0 to 100 scale (0 no effect, 100 complete control); for Plant response rating, Corn: Preemergence, 500 g ai/ha, visual rating after 10 days; for Corn plant response rating: Test C, preemergence, 125 g ai/ha
Procedure, shortened: as §1

pigweed, palmer [6] = test: Test C preemergence; type: in vivo, Amaranthus palmeri; conditions: 0 to 100 scale (0 no effect, 100 complete control); for Plant response rating, Pigweed, Palmer: Preemergence, 500 g ai/ha, visual rating after 10 days
Procedure, shortened: as §1

barnyardgrass [7] = test: Test D flooded paddy test; type: in vivo, Echinochloa crus-galli; conditions: 250 g ai/ha, applied to paddy water, visual rating after 13 to 14 days, scale 0 to 100 (0 no effect, 100 complete control)
Procedure, shortened: (§2)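 Rating scale 0–100 (0 no effect, 100 complete control), visual, versus controls. Readout at 13–14 days after in-water application to 2-leaf plants in pots flooded 3 cm deep.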

ragweed [8] = test: Test C preemergence; type: in vivo, Ambrosia artemisiifolia; conditions: 0 to 100 scale (0 no effect, 100 complete control); for Plant response rating, Ragweed: Preemergence, 500 g ai/ha, visual rating after 10 days; for Ragweed plant response rating: Test C, preemergence, 125 g ai/ha
Procedure, shortened: as §1

horseweed = test: Test C postemergence; type: in vivo, Erigeron canadensis; conditions: 10 days
Procedure, shortened: as §1

galium = test: Test C postemergence; type: in vivo, Galium aparine; conditions: 10 days
Procedure, shortened: as §1

kochia [9] = test: Test C postemergence; type: in vivo, Bassia scoparia; conditions: 10 days
Procedure, shortened: as §1

soybean [10] = test: Test C preemergence; type: in vivo, Glycine max; conditions: 0 to 100 scale (0 no effect, 100 complete control); for Plant response rating, Soybean: Preemergence, 500 g ai/ha, visual rating after 10 days; for Soybean plant response rating: Test C, preemergence, 125 g ai/ha
Procedure, shortened: as §1

pigweed, palmer [11] = test: Test C postemergence; type: in vivo, Amaranthus palmeri; conditions: 10 days
Procedure, shortened: as §1

green foxtail [12] = test: Test C postemergence; type: in vivo, Setaria viridis; conditions: 10 days
Procedure, shortened: as §1

ryegrass, Italian [13] = test: Test C preemergence; type: in vivo, Lolium multiflorum; conditions: 0 to 100 scale (0 no effect, 100 complete control); for Plant response rating, Ryegrass, Italian: Preemergence, 500 g ai/ha, visual rating after 10 days; for Ryegrass, Italian plant response rating: Test C, preemergence, 125 g ai/ha
Procedure, shortened: as §1

wheat [14] = test: Test C preemergence; type: in vivo, Triticum aestivum; conditions: 0 to 100 scale (0 no effect, 100 complete control); for Plant response rating, Wheat: Preemergence, 500 g ai/ha, visual rating after 10 days; for Wheat plant response rating: Test C, preemergence, 125 g ai/ha
Procedure, shortened: as §1

oat, wild [15] = test: Test C preemergence; type: in vivo, Avena fatua; conditions: 0 to 100 scale (0 no effect, 100 complete control); for Plant response rating, Oat, Wild: Preemergence, 500 g ai/ha, visual rating after 10 days; for Oat, Wild plant response rating: Test C, preemergence, 125 g ai/ha
Procedure, shortened: as §1

blackgrass [16] = test: Test C preemergence; type: in vivo, Alopecurus myosuroides; conditions: 0 to 100 scale (0 no effect, 100 complete control); for Plant response rating, Blackgrass: Preemergence, 500 g ai/ha, visual rating after 10 days; for Blackgrass plant response rating: Test C, preemergence, 125 g ai/ha
Procedure, shortened: as §1

ryegrass, Italian [17] = test: Test C postemergence; type: in vivo, Lolium multiflorum; conditions: 10 days
Procedure, shortened: as §1

kochia [18] = test: Test C preemergence; type: in vivo, Bassia scoparia; conditions: 0 to 100 scale (0 no effect, 100 complete control); for Plant response rating, Kochia: Preemergence, 500 g ai/ha, visual rating after 10 days; for Kochia plant response rating: Test C, preemergence, 125 g ai/ha
Procedure, shortened: as §1

wheat [19] = test: Test C postemergence; type: in vivo, Triticum aestivum; conditions: 10 days
Procedure, shortened: as §1

barnyardgrass [20] = test: Test C postemergence; type: in vivo, Echinochloa crusgalli; conditions: 10 days
Procedure, shortened: as §1

rice = test: Test D flooded paddy test; type: in vivo, Oryza sativa; conditions: 250 g ai/ha, applied to paddy water, visual rating after 13 to 14 days, scale 0 to 100 (0 no effect, 100 complete control)
Procedure, shortened: as §2

sedge, umbrella = test: Test D flooded paddy test; type: in vivo, Cyperus difformis; conditions: 250 g ai/ha, applied to paddy water, visual rating after 13 to 14 days, scale 0 to 100 (0 no effect, 100 complete control)
Procedure, shortened: as §2

green foxtail [21] = test: Test C preemergence; type: in vivo, Setaria viridis; conditions: 0 to 100 scale (0 no effect, 100 complete control); for Plant response rating, Foxtail, Green: Preemergence, 500 g ai/ha, visual rating after 10 days; for Foxtail, Green plant response rating: Test C, preemergence, 125 g ai/ha
Procedure, shortened: as §1

blackgrass [22] = test: Test C postemergence; type: in vivo, Alopecurus myosuroides; conditions: 10 days
Procedure, shortened: as §1

ducksalad = test: Test D flooded paddy test; type: in vivo, Heteranthera limosa; conditions: 250 g ai/ha, applied to paddy water, visual rating after 13 to 14 days, scale 0 to 100 (0 no effect, 100 complete control)
Procedure, shortened: as §2

soybean [23] = test: Test C postemergence; type: in vivo, Glycine max; conditions: 10 days
Procedure, shortened: as §1

[24] = 125 g ai/ha, postemergence, 0 to 100 scale, 0 no effect, 100 complete control
[25] = Postemergence, 500 g ai/ha, visual 0 to 100 scale (0 no effect, 100 complete control)

Cc1cccc2c1O[C@H](C)CN2C(=O)c1cccc(-c2ncn(C(C)C)n2)c1 [Compound 221]
0: Plant response rating, Oat, Wild (oat, wild [1]; [24]) | Plant response rating, Oat, Wild (oat, wild [1]; [25]) | Plant response rating, Barnyardgrass (barnyardgrass [2]) | Barnyardgrass plant response rating (barnyardgrass [2]) | Plant response rating, Corn (corn [3]; [24]) | Plant response rating, Corn (corn [3]; [25]) | Plant response rating, Ragweed (ragweed [4]; [24]) | Plant response rating, Ragweed (ragweed [4]; [25]) | Plant response rating, Corn (corn [5]) | Corn plant response rating (corn [5]) | Plant response rating, Pigweed, Palmer (pigweed, palmer [6]) | Plant response rating, Barnyardgrass (Flood) (barnyardgrass [7]) | Plant response rating, Ragweed (ragweed [8]) | Ragweed plant response rating (ragweed [8]) | Plant response rating, Horseweed (horseweed; [24]) | Plant response rating, Galium (galium; [24]) | Plant response rating, Galium (galium; [25]) | Plant response rating, Kochia (kochia [9]; [24]) | Plant response rating, Kochia (kochia [9]; [25]) | Plant response rating, Soybean (soybean [10]) | Soybean plant response rating (soybean [10]) | Plant response rating, Pigweed, Palmer (pigweed, palmer [11]; [24]) | Plant response rating, Pigweed, Palmer (pigweed, palmer [11]; [25]) | Plant response rating, Foxtail, Green (green foxtail [12]; [24]) | Plant response rating, Foxtail, Green (green foxtail [12]; [25]) | Plant response rating, Ryegrass, Italian (ryegrass, Italian [13]) | Ryegrass, Italian plant response rating (ryegrass, Italian [13]) | Plant response rating, Wheat (wheat [14]) | Wheat plant response rating (wheat [14]) | Plant response rating, Oat, Wild (oat, wild [15]) | Oat, Wild plant response rating (oat, wild [15]) | Plant response rating, Blackgrass (blackgrass [16]) | Blackgrass plant response rating (blackgrass [16]) | Plant response rating, Ryegrass, Italian (ryegrass, Italian [17]; [24]) | Plant response rating, Ryegrass, Italian (ryegrass, Italian [17]; [25]) | Plant response rating, Kochia (kochia [18]) | Kochia plant response rating (kochia [18]) | Plant response rating, Wheat (wheat [19]; [24]) | Plant response rating, Wheat (wheat [19]; [25]) | Plant response rating, Barnyardgrass (barnyardgrass [20]; [24]) | Plant response rating, Rice (Flood) (rice) | Plant response rating, Sedge, Umbrella (Flood) (sedge, umbrella) | Plant response rating, Foxtail, Green (green foxtail [21]) | Foxtail, Green plant response rating (green foxtail [21]) | Plant response rating, Blackgrass (blackgrass [22]; [24]) | Plant response rating, Blackgrass (blackgrass [22]; [25]) | Plant response rating, Ducksalad (Flood) (ducksalad) | Plant response rating, Soybean (soybean [23]; [24]) | Plant response rating, Soybean (soybean [23]; [25])
20: Plant response rating, Horseweed (horseweed; [25])
10: Plant response rating, Barnyardgrass (barnyardgrass [20]; [25])

Cc1cc(-n2cnc(C(C)C)n2)cc(C(=O)N2C[C@H](C)Oc3c(Cl)cccc32)c1F [Compound 223]
100: Plant response rating, Barnyardgrass (barnyardgrass [2]) | Plant response rating, Pigweed, Palmer (pigweed, palmer [6]) | Pigweed, Palmer plant response rating (pigweed, palmer [6]; Test C, preemergence, 125 g ai/ha) | Plant response rating, Galium (galium; [24]) | Plant response rating, Foxtail, Green (green foxtail [21]) | Foxtail, Green plant response rating (green foxtail [21]) | Plant response rating, Soybean (soybean [23]; [24]) | Plant response rating, Soybean (soybean [23]; [25])
0: Plant response rating, Ragweed (ragweed [4]; [24]) | Corn plant response rating (corn [5])
95: Plant response rating, Sedge, Umbrella (Flood) (sedge, umbrella)
40: Plant response rating, Corn (corn [5]) | Plant response rating, Ragweed (ragweed [8]) | Blackgrass plant response rating (blackgrass [16]) | Plant response rating, Barnyardgrass (barnyardgrass [20]; [25])
30: Plant response rating, Oat, Wild (oat, wild [1]; [25]) | Plant response rating, Horseweed (horseweed; [25]) | Plant response rating, Foxtail, Green (green foxtail [12]; [24]) | Plant response rating, Wheat (wheat [19]; [25]) | Plant response rating, Blackgrass (blackgrass [22]; [24])
90: Barnyardgrass plant response rating (barnyardgrass [2]) | Plant response rating, Kochia (kochia [9]; [24]) | Plant response rating, Kochia (kochia [9]; [25]) | Plant response rating, Pigweed, Palmer (pigweed, palmer [11]; [25]) | Plant response rating, Ryegrass, Italian (ryegrass, Italian [13]) | Plant response rating, Wheat (wheat [14]) | Plant response rating, Blackgrass (blackgrass [16]) | Plant response rating, Ryegrass, Italian (ryegrass, Italian [17]; [25])
20: Plant response rating, Corn (corn [3]; [24]) | Plant response rating, Horseweed (horseweed; [24]) | Wheat plant response rating (wheat [14]) | Plant response rating, Barnyardgrass (barnyardgrass [20]; [24])
10: Plant response rating, Oat, Wild (oat, wild [1]; [24]) | Plant response rating, Ragweed (ragweed [4]; [25]) | Plant response rating, Barnyardgrass (Flood) (barnyardgrass [7]) | Soybean plant response rating (soybean [10]) | Plant response rating, Wheat (wheat [19]; [24]) | Plant response rating, Rice (Flood) (rice)
70: Plant response rating, Soybean (soybean [10]) | Plant response rating, Oat, Wild (oat, wild [15]) | Plant response rating, Blackgrass (blackgrass [22]; [25])
60: Plant response rating, Foxtail, Green (green foxtail [12]; [25]) | Kochia plant response rating (kochia [18])
50: Ragweed plant response rating (ragweed [8]) | Oat, Wild plant response rating (oat, wild [15]) | Plant response rating, Ryegrass, Italian (ryegrass, Italian [17]; [24])
80: Plant response rating, Corn (corn [3]; [25]) | Plant response rating, Pigweed, Palmer (pigweed, palmer [11]; [24]) | Ryegrass, Italian plant response rating (ryegrass, Italian [13]) | Plant response rating, Kochia (kochia [18]) | Plant response rating, Ducksalad (Flood) (ducksalad)
